Data reported in PMC8869242 (Biomedicines, 2022).
pIC50: −log10 of the molar value. Where two headings read alike, the source gives them in different places.

Columns and labels:
MCF-12A cells = assay: Cell proliferation assay (label-free live cell counting), MCF-12A; format: cell-based, human; details: for logIC50 ± SEM: n = 4; for IC50: n = 4, read-out: IC50 in µM [95% CI]
MDA-MB-231 breast tumors = assay: Histology, Ki-67 immunohistochemistry and TUNEL assay of xenograft tumors; format: in vivo, mice; details: Pd2Spm 5 mg/kg/day, cisplatin 2 mg/kg/day, versus vehicle
Procedure: For the immunohistochemical study, tissue sections were dewaxed and rehydrated. Slides were submitted to […] by immersion in 10% retrieval solution (Dako) and kept in a water bath at 100 °C for 20 min. After blocking of non-specific staining, slides were incubated with primary antibody for Ki-67 (1:50 dilution, clone MIB-1, Dako) overnight at 4 °C. Slides were then stained with Novolink Polymer Detection Systems (Leica Biosystems Inc., Buffalo Grove, IL, USA) following manufacturer’s instructions, counterstained with hematoxylin and permanently mounted. The nuclear Ki-67 staining was analyzed using Fiji’s high-throughput automatic quantitation with Andy’s Algorithm pipeline, as described elsewhere. The immunoreactivity was evaluated, counting at least 600 nuclei/field from 5 representative fields of the lesion at high magnification, avoiding necrotic areas. The ratio of Ki-67 positive nuclei per all counted nuclei was expressed as a percentage (Ki-67 proliferation index).
The paraffin-embedded tumor sections were deparaffinized, rehydrated through a graded series of ethanol and double distilled water and then stained with In Situ Cell Death Detection Kit (Roche Diagnostics GmbH, Mannheim, Germany) as per manufacturer’s instructions. Apoptosis was quantified at single-cell level by counting the number of cells positive for terminal deoxynucleotidyl transferase (TdT) dUTP nick-end labeling (TUNEL-positive cells). Briefly, tumor sections were incubated with 20 µg/mL proteinase K solution (in 10 mM Tris/HCl, pH 7.4–8) for 30 min at 37 °C. Slides were washed and stained with TUNEL reaction mixture (mixture of terminal deoxynucleotidyl transferase with labeled nucleotides) for 60 min at 37 °C in the dark followed by three washes. Slides were mounted with […] Antifade Mounting Medium with DAPI, and coverslips were sealed. At least twenty nonoverlapping high-power microscope fields of each tumor section were captured while avoiding areas with central necrosis. Fluorescence images were acquired using the LionHeart automated microscope at Ex: 520–560 nm and Em: 570–620 nm.

[1] = test system: Ehrlich ascites carcinoma (EAC); details: 4 mg/kg, cited from earlier work; for tumor volume reduction: two injections per week for 2 weeks (cumulative 16 mg/kg); for deaths during treatment: two injections per week for 2 weeks
[2] = Tolerability in tumor-bearing mice (body weight, behavior, relative organ weight, histopathology, deaths)
[3] = Hematological and plasma biochemical analyses in tumor-bearing mice; format: in vivo; details: Pd2Spm 5 mg/kg/day, cisplatin 2 mg/kg/day, end of study
Procedure: Red blood cells (RBC), hemoglobin (Hb), hematocrit (Hct), mean corpuscular volume (MCV) and mean corpuscular hemoglobin (MCH) were analyzed in a small aliquot of whole blood using ABX Micros 60 automated analyzer (Horiba ABX SAS, Montpellier, France). The remaining blood was centrifuged at 900× g for 15 min, and plasma was separated into aliquots and frozen at −80 °C for biochemical assays. Plasma parameters were analyzed using commercial kits for aspartate aminotransferase—AST (AST CP, A11A01629), alanine transaminase—ALT (ALT CP, A11A01627), cholesterol (CHOL CP, A11A01634), creatinine (Creatinine 120 CP, A11A01868), glucose (Glucose PAP CP, A11A01668), total protein (Total protein CP, A11A01669), triglycerides (Triglycerides CP, A11A01640) and urea (Urea CP, A11A01641). All parameters were determined with an automated analyzer Pentra 400 (ABX Horiba diagnostics, Montpellier, France).

breast cancer cells = details: cited from earlier work
[4] = mice; cited from earlier work
MDA-MB-231 = details: cited from earlier work
MDA-MB-468 TNBC cells = details: cited from earlier work
[5] = Pd2Spm 5 mg/kg/day, cisplatin 2 mg/kg/day
[6] = tumor-bearing mice, i.p. 5 days, Pd2Spm 5 mg/kg/day, cisplatin 2 mg/kg/day
[7] = organ weight/body weight × 100%, mean ± SEM, n = 7, cisplatin 2 mg/kg/day, Pd2Spm 5 mg/kg/day

N.N.[Cl][Pt][Cl] [Cisplatin, cis-dichlorodiammine platinum(II), reference compound]
logIC50 ± SEM (MCF-12A cells; 24 h of incubation): −5.510 ± 0.062
IC50 (MCF-12A cells; 24 h of incubation): 3.1 µM
logIC50 ± SEM (MCF-12A cells; 48 h of incubation): −5.988 ± 0.029
IC50 (MCF-12A cells; 48 h of incubation): 1 µM
logIC50 ± SEM (MCF-12A cells; 72 h of incubation): −5.981 ± 0.026
IC50 (MCF-12A cells; 72 h of incubation): 1 µM
TUNEL-positive cells in tumors (DNA damage) (MDA-MB-231 breast tumors): significant increase
mitotic count in tumors (MDA-MB-231 breast tumors): mitotic count of vehicle-treated animals was significantly increased compared to cisplatin- and Pd2Spm-treated groups
tumor volume reduction ([1]; first study): 36.4%
tumor volume reduction ([1]; second study): 46.7%
deaths during treatment ([1]; first study): two associated deaths
deaths during treatment ([1]; second study): no associated deaths
liver histopathology (glycogen accumulation, PAS) [2, 5]: swollen, pale and finely vacuolated cytoplasm due to intracellular accumulation of glycogen
kidney histopathology (perirenal adipose tissue) ([2]; compared to vehicle-treated animals): decreased perirenal adipose tissue
body weight [2, 6]: slower body weight recovery

NCCCNCCCCNCCCN.[Cl][Pd][Cl].[Cl][Pd][Cl] [Pd2Spm, dinuclear palladium(II)-spermine chelate]
growth inhibition at the highest concentration (MCF-12A cells; 100 µM, compared to same dosage of cisplatin): did not produce a maximum growth inhibition
pIC50 (MCF-12A cells; 24-72 h, read-out: IC50 values (range over incubation times)): 3.64 to 4.05
logIC50 ± SEM (MCF-12A cells; 48 h of incubation): −4.039 ± 0.023
IC50 (MCF-12A cells; 48 h of incubation): 91.5 µM
logIC50 ± SEM (MCF-12A cells; 72 h of incubation): −4.048 ± 0.068
IC50 (MCF-12A cells; 72 h of incubation): 89.5 µM
Ki-67 index of tumors (MDA-MB-231 breast tumors): significantly decreased
TUNEL-positive cells in tumors (DNA damage) (MDA-MB-231 breast tumors): significant increase
mitotic count in tumors (MDA-MB-231 breast tumors): mitotic count of vehicle-treated animals was significantly increased compared to cisplatin- and Pd2Spm-treated groups
hematologic analysis (RBC, Hb, Htc, MCV, MCH) versus vehicle [3]: no significant deviations
plasma biochemical analysis (urea, creatinine, glucose, AST, ALT, total proteins, triglycerides, total cholesterol) versus vehicle [3]: did not reveal changes
amount accumulated in breast cancer cells relative to cisplatin (breast cancer cells): approximately four times lower
accumulation in major organs relative to cisplatin [4]: lower accumulation in major organs
serum terminal half-life relative to cisplatin [4]: very similar serum terminal half-life to cisplatin
IC50 values (MDA-MB-231): within a low micromolar range
IC50 values (MDA-MB-468 TNBC cells): within a low micromolar range
liver histopathology (glycogen accumulation, PAS) [2, 5]: not observed
deaths during treatment ([2]; cumulative dose of 25 mg/kg (5 mg/kg/day for 5 consecutive days)): no associated deaths
Relative Organ Weight (%), Brain [2, 7]: 1.79 ± 0.16%
Relative Organ Weight (%), Heart [2, 7]: 0.53 ± 0.06%
Relative Organ Weight (%), Kidneys [2, 7]: 1.43 ± 0.10%
Relative Organ Weight (%), Liver [2, 7]: 6.14 ± 0.29%
Relative Organ Weight (%), Lungs [2, 7]: 0.77 ± 0.08%
Relative Organ Weight (%), Spleen [2, 7]: 0.32 ± 0.11%
body weight [2, 6]: did not show changes in body weight
signs of general toxicity [2, 6]: no such adverse effects were observed
